Assay results published in patent publication US8663653B2, “Efficient cell culture system for hepatitis C virus genotype 2B” (priority 2008, dated 2014).
“Also recorded” adds a separate entry of the source.

Test system: JFH1-based recombinants of genotypes 1a, 1b, 2a, 2b, and 6a
Type: cell-based, hepatitis C virus

Row | Structure (SMILES) | effect on number of infected cells and supernatant HCV RNA titers
1 | NC12CC3CC(CC(C3)C1)C2 [amantadine] | no apparent effect; also recorded: did not decrease the number of infected cells or supernatant HCV RNA titers
2 | NC(=O)c1ncn([C@@H]2O[C@H](CO)[C@@H](O)[C@H]2O)n1 [ribavirin] | no apparent effect; also recorded: did not decrease the number of infected cells or supernatant HCV RNA titers
